Source: US11911436B2, “Amphiphilic peptide chaperones and methods of use” (priority 2021, dated 2024)
Where two headings read alike, the source gives them in different places. Marks after values point to notes of the source that are not given here. Square brackets hold non-standard residues; d marks the D form. Peptide text beside a SMILES is read from it. * marks the point of attachment. Myristoyl = CCCCCCCCCCCCCC(=O)*; dNMeL = CN[C@H](CC(C)C)C(=O)O; TMR = tetramethylrhodamine

What was measured:
[1] = test system: ARPE-19 cells; assay: Peptide toxicity to cells, cell viability imaging; type: cell-based; settings: increasing peptide concentrations
Description: Cell viability imaging was performed on cells with increasing concentrations of Myr-CPAMC, with fluorescent staining used to indicate dead cells (FIG. 9A).

[2] = test system: ARPE-19 cells, hiPSC-NSC cultures, and NSC-derived neurons
[3] = test system: wild-type C. elegans (N2); assay: C. elegans N2 lifespan assay at 20° C. with peptide feeding; type: in vivo; settings: N2 worms; for Median Lifespan (Days ± SE): 50 μg peptide with E. coli OP50; for Increase in median survival (%): 50 μg peptide, vs control
Description: A schematic of an assay of C. elegans N2 lifespan at 20° C. is shown (FIG. 10A). This involved peptide treatment (50 μg) with E. coli OP50 as a food source. Plates were changed every second day with 50 μg fresh peptide and OP50. Scoring of survival was done every day to the last day of survival. 50 mM FUdR was added in experimental plates between D1 and D5 to prevent progeny production.

[4] = test system: C. elegans (N2 strain); assay: Thermotolerance assay, continuous heat stress at 35° C.; type: in vivo; settings: N2 worms
Description: The lifespan of wild type C. elegans with and without peptide at a restrictive temperature was measured.
A schematic representation of the thermotolerance assay used is shown (FIG. 11A). 24 hours of 50 μg peptide treatment at 20° C. of a synchronized population of wild type C. elegans was followed by a continuous heat stress at 35° C. Worms were scored every two hours for 24 hours for survival.

[5] = test system: CL2006 C. elegans; assay: CL2006 lifespan at 20° C. (paralysis and death model); type: in vivo; settings: CL2006 worms, 50 μg peptide
Description: CL2006 C. elegans were used as a paralysis and death model. Worms are maintained at 15° C., with adult onset paralysis induced at 20° C.
50 μg CPAMC and CPPRAMC peptide or controls were added to CL2006 worms, and the fraction left alive over time at the restrictive temperature of 20° C. was quantified (FIG. 12). […] (FIG. 12).

[6] = test system: CL4176 C. elegans; assay: CL4176 Aβ-induced paralysis and survival assay; type: in vivo; settings: CL4176 worms
Description: CL4176 C. elegans is a temperature sensitive strain. Worms are maintained at 15° C. and shifted to increased temperature to cause Aβ-induced paralysis in adults. This has been used as a C. elegans model of Alzheimer's disease.
A scheme of a paralysis assay with CL4176 worms is shown (FIG. 13A). Peptide treatment began on CL4176 embryos and continued throughout the experiment. After 2 days at 15° C., the temperature was increased to the restrictive temperature of 25° C. Worms were scored for survival and paralysis.
Example images of paralyzed and non-paralyzed worms are shown (FIG. 13C).

[7] = test system: C. elegans wild-type (N2 strain); assay: Paraquat (PQ)-induced oxidative stress survival; type: in vivo; settings: five-day old N2 worms, 50 μg peptide 24 hours, 50 mM PQ
Description: Five-day old N2 worms were pretreated with 50 μg peptide for 24 hours and subjected to 50 mM PQ. The survival of the worms was monitored every hour under a microscope until the end of survival. […] The median survival value (50% survival) in CPPRAMC, CPAMC, and CP-SC (control) peptides corresponds to 9.6 h, 8.9 h and 5.9 h, respectively, as compared to vehicle control (5.5 h) (FIG. 14).

[8] = test system: C. elegans (N2) worms; assay: Juglone (JG)-induced oxidative stress survival; type: in vivo; settings: N2 worms at day 5, 50 μg peptide 24 h, 50 μM JG
Description: N2 worms at day 5 pretreated for 24 h with 50 μg CPAMC or CP-SC (control) and subjected to 50 μM JG. Survival was checked every hour under a microscope until the end of survival. The median survival value in CPAMC and CP-SC (control) peptides corresponds to 7.3 h and 5.9 h, respectively, compared to vehicle control (4.9 h) (FIG. 15).

[9] = test system: human red blood cells; assay: Melittin-induced hemolysis of human RBC; type: cell-based; settings: 2% human RBC, room temperature 30 min, OD 540 nm
Description: Hemolysis of human red blood cells with melittin was measured with varying concentrations of CPAMC (FIG. 3). To 0.3 mL of 2% human RBC (red blood cell) suspension was added 2 μM melittin and/or peptides taken in 0.7 mL of PBS. The tubes were incubated at room temperature for 30 min, centrifuged, and the OD of the supernatant was measured at 540 nm. PBS and PBS containing 0.1% TritonX-100 served as negative and positive control, respectively.
The protective effect of Myr-CPAMC peptide of human red blood cells (RBC) from melittin-induced hemolysis was also examined. To 0.3 mL of 2% human RBC suspension was added to melittin and/or peptide taken in 0.7 mL of PBS. The tubes were incubated at room temperature for 30 min, centrifuged (FIG. 5A) and the OD of the supernatant was measured at 540 nm. PBS and PBS containing 0.1% TritonX-100 served as negative and positive control, respectively.

[10] = test system: ARPE-19 cells; assay: Sodium iodate cytotoxicity, cell viability imaging; type: cell-based; settings: 7.5 mM sodium iodate, 24 hours
Description: Sodium iodate is a chemical that induces oxidative stress and cell death. The ability of CPPRAMC peptide to block the cytotoxic action of sodium iodate was investigated. ARPE-19 cells cultured on a 96-well plate were treated with 7.5 mM sodium iodate and/or CPPRAMC peptide for 24 hours. At the end of the incubation, cell viability imaging was done using the EarlyTox cell integrity kit (Molecular Devices, Sunnyvale, Calif.) (FIG. 6A). The percentage of dead cells in each sample was calculated from the live/dead cell imaging data using the Softmax Pro software (FIG. 6B).
The ability of Myr-CPAMC peptide to block the cytotoxic action of sodium iodate was also investigated. Authenticated ARPE-19 cells cultured on a 96-well plate were treated with 7.5 mM sodium iodate and/or Myr-CPAMC peptide for 24 hours. At the end of the incubation, cell viability imaging was done using the EarlyTox cell integrity kit (Molecular Devices, Sunnyvale, Calif.) (FIG. 7A). The percentage of dead cells in each sample was calculated from the live/dead cell imaging data using the Softmax Pro software (FIG. 7B).

[11] = biological target: Proteinase K (Parengyodontium album, UniProt P06873); assay: Proteinase K incubation, HPLC profiles; type: in vitro ADME; settings: 100 μg peptide, 10 μg Proteinase K, overnight
[12] = test system: ARPE-19 cells, hiPSC-NSC cultures, and NSC-derived neurons; assay: Peptide entry into cells (fluorescent label); settings: fluorescently labeled peptide

Sequence of Proteinase K (P06873 106-384, species assumed): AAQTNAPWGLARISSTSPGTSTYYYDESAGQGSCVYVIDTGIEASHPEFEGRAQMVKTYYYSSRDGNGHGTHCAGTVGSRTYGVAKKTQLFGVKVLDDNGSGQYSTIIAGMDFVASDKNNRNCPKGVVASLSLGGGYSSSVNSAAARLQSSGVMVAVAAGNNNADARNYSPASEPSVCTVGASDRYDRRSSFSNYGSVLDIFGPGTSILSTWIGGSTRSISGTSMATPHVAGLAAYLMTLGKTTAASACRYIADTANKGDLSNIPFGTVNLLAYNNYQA

Molecule: Myristoyl-{K(TMR)}LFVIFLVHFSPGRDEDKDEK-NH2 (Myristoyl-K(TMR)LFVIFLVHFSPGRDEDKDEK-NH2) [Myr-(TMR)-CPAMC]
- toxicity of peptide to cells [1]: not toxic to cells
- entry of peptide into cells [2]: can enter into ARPE-19 cells at different concentrations

Molecule: CH3-VPTLKdlplknvedkfhrsfvesvk-NH2 [CP-cp, reference compound]
- Median Lifespan (Days ± SE) [3]: 13.23 ± 0.20 days
- Increase in median survival (%) [3]: 0%
- % increase in survival ([4]; 35° C., 50 μg peptide, vs control): 0%
- Median survival ± SE (hours at 35° C.) ([4]; 24 hours 50 μg peptide at 20° C., then 35° C.): 7.4 ± 0.4 h
- Median survival ± SE (days at 20° C.) [5]: 7.0 ± 0.28 days
- % increase in survival ([5]; vs control): 2.0%
- % increase in median survival ([6]; 25° C., vs control): 0%
- Median survival Hours ± SE ([6]; 2 days at 15° C., then 25° C.): 44.7 ± 0.4 h
- median survival value (50% survival) [7]: 5.9 h
- median survival value [8]: 5.9 h

Molecule: CH3-DFVIFLDVKHFSPEDLTVK-NH2 (Me-DFVIFLDVKHFSPEDLTVK-NH2; SMILES CC[C@H](C)[C@H](NC(=O)[C@@H](NC(=O)[C@H](Cc1ccccc1)NC(=O)[C@H](CC(=O)O)NC)C(C)C)C(=O)N[C@@H](Cc1ccccc1)C(=O)N[C@@H](CC(C)C)C(=O)N[C@@H](CC(=O)O)C(=O)N[C@H](C(=O)N[C@@H](CCCCN)C(=O)N[C@@H](Cc1c[nH]cn1)C(=O)N[C@@H](Cc1ccccc1)C(=O)N[C@@H](CO)C(=O)N1CCC[C@H]1C(=O)N[C@@H](CCC(=O)O)C(=O)N[C@@H](CC(=O)O)C(=O)N[C@@H](CC(C)C)C(=O)N[C@H](C(=O)N[C@H](C(=O)N[C@@H](CCCCN)C(N)=O)C(C)C)[C@@H](C)O)C(C)C) [MC-αA, Parent peptide from αA crystallin]
- Median Lifespan (Days ± SE) [3]: 16.10 ± 0.25 days
- Increase in median survival (%) [3]: 20* %

Molecule: CCCCCCCCCCCCCC(=O)N[C@@H](CCCCN)C(=O)N[C@@H](CC(C)C)C(=O)N[C@@H](Cc1ccccc1)C(=O)N[C@H](C(=O)N[C@H](C(=O)N[C@@H](Cc1ccccc1)C(=O)N[C@@H](CC(C)C)C(=O)N[C@H](C(=O)N[C@@H](Cc1c[nH]cn1)C(=O)N[C@@H](Cc1ccccc1)C(=O)N[C@@H](CO)C(=O)N1CCC[C@H]1C(=O)NCC(=O)N[C@@H](CCCNC(=N)N)C(=O)N[C@@H](CC(=O)O)C(=O)N[C@@H](CCC(=O)O)C(=O)N[C@@H](CC(=O)O)C(=O)N[C@@H](CCCCN)C(=O)N[C@@H](CC(=O)O)C(=O)N[C@@H](CCC(=O)O)C(=O)N[C@@H](CCCCN)C(N)=O)C(C)C)[C@@H](C)CC)C(C)C [Myr-CPAMC] (Myristoyl-KLFVIFLVHFSPGRDEDKDEK-NH2)
- hemolysis by melittin in presence of peptide [9]: protects human red blood cells (RBC) from melittin-induced hemolysis
- percentage of dead cells with sodium iodate and peptide [10]: protects ARPE-19 cells from sodium iodate-induced cytotoxicity
- toxicity of peptide to cells [1]: non-toxic to cells

Molecule: CC[C@@H](C)[C@@H](NC(=O)[C@H](NC(=O)[C@@H](Cc1ccccc1)NC(=O)[C@@H](CC(C)C)NC)C(C)C)C(=O)N[C@H](Cc1ccccc1)C(=O)N[C@H](CC(C)C)C(=O)N[C@@H](C(=O)N[C@H](Cc1c[nH]cn1)C(=O)N[C@H](Cc1ccccc1)C(=O)N[C@H](CO)C(=O)N1CCC[C@@H]1C(=O)NCC(=O)N[C@H](CCCNC(=N)N)C(=O)N[C@H](CC(=O)O)C(=O)N[C@H](CCC(=O)O)C(=O)N[C@H](CC(=O)O)C(=O)N[C@H](CCCCN)C(=O)N[C@H](CC(=O)O)C(=O)N[C@H](CCC(=O)O)C(=O)N[C@H](CCCCN)C(N)=O)C(C)C [CPPRAMC, CH3-lfviflvhfspgrdedkdek-NH2] (H-[dNMeL][dF][dV][dI][dF][dL][dV][dH][dF][dS][dP]G[dR][dD][dE][dD][dK][dD][dE][dK]-NH2; N-terminus and C-terminus assumed)
- resistance to proteolytic cleavage [11]: resistant to proteolytic cleavage
- entry of peptide into cells [12]: readily penetrates neural cells
